Some test systems named below: MOLT-4; LOX IMVI; U-251; IGROV-1; M14; DU-145; NCI/ADR-RES; CAKI-1; OVCAR-5; NCI-H23; UACC-257; ACHN; KM12; NCI-H522; NCI-H226; SN12C; SW-620; A549; RPMI-8226.
What all share (assay): inhibition of tumour cell growth, NCI panel, 48 h

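Five concentrations, 48 hours, 96-well plates. GI50 = concentration required for 50% inhibition of growth.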 Activity calls are given as the source filed them. No stated cut-off is given here; in the data, active = GI50 up to about 1.1 µM and inactive = higher.

In the case of `Nc1nc(-c2ccccc2)c(-c2ccccc2)c(-c2nc(N)nc(-c3ccccc3)c2-c2ccccc2)n1`, the GI50 in the experiment on MOLT-4, in the experiment on LOX IMVI, in the experiment on U-251, in the experiment with IGROV-1, in the experiment on M14 and in the experiment with DU-145 was > 100 µM (inactive) each time. In addition, the GI50 in the experiment on NCI/ADR-RES, with CAKI-1, with OVCAR-5, in the experiment with NCI-H23, in the experiment with UACC-257 and in the experiment with ACHN was > 100 µM (inactive) each time. For the same compound, the GI50 was > 100 µM (inactive) with KM12; 57.9 µM (inactive) in the experiment with NCI-H522; > 100 µM (inactive) in the experiment on NCI-H226; > 100 µM (inactive) with SN12C; > 100 µM (inactive) in the experiment with SW-620; > 100 µM (inactive) with A549.
As for `COCCOC1=CC(=O)c2c(O)ccc(O)c2C1=O`, the GI50 in the experiment on RPMI-8226 is 4.28 µM (inactive); in the experiment with MOLT-4 it was 2.43 µM (inactive); in the experiment on LOX IMVI it was 0.726 µM (active); with U-251, 1.92 µM (inactive); in the experiment with IGROV-1 it was 1.72 µM (inactive); in the experiment with M14, 0.186 µM (active). The GI50 in the experiment on DU-145 was 0.893 µM (active); in the experiment on NCI/ADR-RES, 2.44 µM (inactive); with CAKI-1, 2.59 µM (inactive); with OVCAR-5, 1.61 µM (inactive); with NCI-H23 it was 1.12 µM (active); in the experiment with UACC-257, 0.203 µM (active). Also, the GI50 with ACHN was 1.87 µM (inactive); with KM12, 1.93 µM (inactive); in the experiment on NCI-H522, 2.29 µM (inactive); in the experiment on NCI-H226, 2.23 µM (inactive); in the experiment with SN12C, 1.63 µM (inactive); with SW-620, 0.569 µM (active). The GI50 with A549 is 2 µM (inactive).
As for `Cc1sc2nc3n(c(=O)c2c1C)N=C(c1ccc(Cl)cc1)CS3`, the GI50 in the experiment with RPMI-8226, in the experiment on MOLT-4, in the experiment on LOX IMVI, in the experiment on U-251, with DU-145 and with NCI/ADR-RES was > 100 µM (inactive) each time. Also, the GI50 with CAKI-1, with OVCAR-5, in the experiment on NCI-H23, in the experiment on UACC-257, in the experiment on ACHN and in the experiment with KM12 was > 100 µM (inactive) throughout. Moreover, the GI50 in the experiment on NCI-H522, with NCI-H226, in the experiment on SN12C, with SW-620 and with A549 was > 100 µM (inactive) in each case.
For the compound `O=C1NN=C(c2ccc(Cl)cc2)CC1C1C(=O)N(c2ccccc2)N=C1c1ccccc1` (centres undefined), the GI50 is 37.1 µM (inactive) in the experiment with RPMI-8226; 28.1 µM (inactive) in the experiment with MOLT-4; 18.2 µM (inactive) in the experiment with LOX IMVI; 33 µM (inactive) in the experiment on U-251; 35.7 µM (inactive) in the experiment on IGROV-1; 37.8 µM (inactive) with M14. The GI50 in the experiment with DU-145 was 53.7 µM (inactive); in the experiment with NCI/ADR-RES, 40.6 µM (inactive); in the experiment on OVCAR-5 it was 28.9 µM (inactive); in the experiment with NCI-H23, 23.3 µM (inactive); in the experiment with ACHN, 29.2 µM (inactive); with KM12, 29 µM (inactive). Besides, the GI50 with NCI-H522 was 23.6 µM (inactive); in the experiment with NCI-H226, 31.8 µM (inactive); in the experiment with SN12C, 34.4 µM (inactive); with SW-620, 30.5 µM (inactive); in the experiment with A549 it was 34 µM (inactive).
Regarding `O=C1CSC(c2ccc([N+](=O)[O-])cc2)N1c1ccc(-c2ccc(-n3c(-c4ccccc4)nc4ccccc4c3=O)cc2)cc1` (centres undefined), the GI50 was 32.5 µM (inactive) in the experiment on RPMI-8226; 20.4 µM (inactive) in the experiment with MOLT-4; 52.5 µM (inactive) in the experiment on LOX IMVI; 83 µM (inactive) with U-251; 59 µM (inactive) in the experiment with M14; > 100 µM (inactive) in the experiment on DU-145. The GI50 with NCI/ADR-RES is 43.9 µM (inactive); with CAKI-1 it was > 100 µM (inactive); with OVCAR-5, > 100 µM (inactive); in the experiment with NCI-H23, > 100 µM (inactive); in the experiment on UACC-257, > 100 µM (inactive); in the experiment on ACHN it was 56.5 µM (inactive). Besides, the GI50 is 21.4 µM (inactive) in the experiment on KM12; > 100 µM (inactive) in the experiment on NCI-H522; 56.1 µM (inactive) in the experiment with NCI-H226; > 100 µM (inactive) in the experiment with SN12C; > 100 µM (inactive) with SW-620; 57 µM (inactive) with A549.
Consider `c1ccc(C(/C(=N/c2ccc(Cc3ccc(/N=C(\C(c4ccccc4)c4ccccc4)N4CC4)cc3)cc2)N2CC2)c2ccccc2)cc1`, for which the GI50 with RPMI-8226 was 3.65 µM (inactive); in the experiment on LOX IMVI, 1.53 µM (inactive); in the experiment on U-251, 12.7 µM (inactive); in the experiment on IGROV-1, 0.942 µM (active); in the experiment with M14 it was 14.3 µM (inactive); in the experiment with DU-145 it was 12.6 µM (inactive). In addition, the GI50 with NCI/ADR-RES is 9.25 µM (inactive); in the experiment with CAKI-1, 6.95 µM (inactive); in the experiment on OVCAR-5, 11.5 µM (inactive); in the experiment with NCI-H23 it was 10.5 µM (inactive); in the experiment on UACC-257, 11.6 µM (inactive); with ACHN, 5.82 µM (inactive). For the same compound, the GI50 with KM12 is 6.28 µM (inactive); in the experiment on NCI-H522 it was 3.14 µM (inactive); in the experiment with NCI-H226, 14.7 µM (inactive); in the experiment with SN12C, 14.3 µM (inactive); in the experiment with SW-620, 6.3 µM (inactive); with A549 it was 7.36 µM (inactive).
For the compound `CCCCCCCCCCCCOC1C(COCCN2CCCC2)OC2OC(C)(C)OC21` (centres undefined), the GI50 in the experiment with RPMI-8226 is 2.52 µM (inactive); in the experiment with MOLT-4, 1.92 µM (inactive); in the experiment on LOX IMVI, 1.4 µM (inactive); in the experiment on U-251 it was 1.73 µM (inactive); in the experiment with IGROV-1 it was 1.72 µM (inactive); in the experiment on M14 it was 1.85 µM (inactive). Also, the GI50 with DU-145 is 10.9 µM (inactive); in the experiment with NCI/ADR-RES, 1.73 µM (inactive); in the experiment on CAKI-1, 1.6 µM (inactive); in the experiment on OVCAR-5, 1.51 µM (inactive); in the experiment on NCI-H23, 1.72 µM (inactive); in the experiment with UACC-257, 1.75 µM (inactive). Besides, the GI50 in the experiment on ACHN was 3.35 µM (inactive); in the experiment on NCI-H522, 1.23 µM (inactive); in the experiment with NCI-H226, 2.56 µM (inactive); with SN12C, 1.82 µM (inactive); with A549 it was 4.42 µM (inactive).
In the case of `CC(C)N/C(=N\C#N)NS(=O)(=O)c1cnccc1NC1CCCCCCC1`, the GI50 in the experiment with RPMI-8226 is 39.8 µM (inactive); with MOLT-4, > 100 µM (inactive); in the experiment on U-251, > 100 µM (inactive); with IGROV-1, > 100 µM (inactive); with M14, > 100 µM (inactive); in the experiment on DU-145 it was > 100 µM (inactive). Besides, the GI50 in the experiment with NCI/ADR-RES, in the experiment on CAKI-1, in the experiment with OVCAR-5, in the experiment with NCI-H23, with UACC-257 and in the experiment with ACHN was > 100 µM (inactive) in each case. Further, the GI50 with KM12, in the experiment on NCI-H522, in the experiment on NCI-H226, with SN12C, in the experiment with SW-620 and in the experiment with A549 was > 100 µM (inactive) in each case.
`COc1ccc(-n2c(C)nc3ccc(NC4OCC(OC(C)=O)C(OC(C)=O)C4OC(C)=O)cc3c2=O)cc1` (centres undefined): the GI50 in the experiment on RPMI-8226 was 35.9 µM (inactive); with MOLT-4, > 100 µM (inactive); in the experiment with LOX IMVI, > 100 µM (inactive); in the experiment on U-251 it was > 100 µM (inactive); in the experiment on IGROV-1, > 100 µM (inactive); in the experiment with DU-145, > 100 µM (inactive). The GI50 with NCI/ADR-RES, in the experiment with CAKI-1, in the experiment with OVCAR-5, in the experiment with NCI-H23, with UACC-257 and in the experiment on ACHN was > 100 µM (inactive) in each case. Further, the GI50 in the experiment with KM12, in the experiment on NCI-H522, in the experiment with NCI-H226, with SN12C and in the experiment with SW-620 was > 100 µM (inactive) in each case.
Consider `O=C1NC(S(=O)(=O)O)=NNC12c1ccccc1-c1ccccc12`, for which the GI50 in the experiment on RPMI-8226, with MOLT-4, with LOX IMVI, in the experiment with IGROV-1, in the experiment with M14 and in the experiment with DU-145 was > 10 µM (inactive) in each case. Moreover, the GI50 in the experiment on NCI/ADR-RES, with CAKI-1, in the experiment with NCI-H23, in the experiment with UACC-257, in the experiment with ACHN and in the experiment on KM12 was > 10 µM (inactive) in each case. Further, the GI50 in the experiment with NCI-H522, in the experiment with NCI-H226, in the experiment with SN12C, in the experiment on SW-620 and in the experiment on A549 was > 10 µM (inactive) in each case.
Consider `CC(C)(C)OC(=O)NNC(=O)C1Cc2ccccc2OC1=O` (centres undefined), for which the GI50 with RPMI-8226, with MOLT-4, in the experiment on U-251, with IGROV-1, in the experiment with M14 and with DU-145 was > 100 µM (inactive) in each case. The GI50 in the experiment with NCI/ADR-RES, with CAKI-1, in the experiment with OVCAR-5, with NCI-H23, in the experiment on UACC-257 and with ACHN was > 100 µM (inactive) each time. In addition, the GI50 with KM12, in the experiment on NCI-H522, in the experiment with NCI-H226, in the experiment with SN12C, in the experiment with SW-620 and in the experiment with A549 was > 100 µM (inactive) each time.
